The values that follow come from ChEMBL document CHEMBL1201862, “PubChem BioAssay data set” (2004).

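Compound exposure: 48 hours, 5 concentrations, 96-well plates. GI50 = concentration required for 50% inhibition of growth.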 Activity calls are given as the source filed them. No stated cut-off is given here; in the data, active = GI50 up to about 1.1 µM and inactive = higher. Positions of bridges follow the written chain, without caps; N, C: chain ends. Residues, ends and D or L forms follow the SMILES beside them.

Among the test systems are RXF 631; DMS-114; SNB-78; DLD-1; XF498; HOP-18; BT-549; MDA-MB-231; NCI/ADR-RES.
Common to all, as to assay: inhibition of tumour cell growth, NCI panel, 48 h

As to `CC(=O)OC1(C#N)CC2OC1C1NC21` (configuration not stated), the GI50 in the test with RXF 631, in the test with DMS-114, in the test with SNB-78, in the test with DLD-1 and in the test on XF498 was > 100 µM (inactive) throughout.

As for `CCc1ccccc1NC(=O)C1=C(C)NC(C)=C(C(=O)Nc2ccccc2CC)C1c1ccc2c(c1)OCO2`, the GI50 is 22.9 µM (inactive) with DMS-114, 34 µM (inactive) with SNB-78, 22.7 µM (inactive) in the test with DLD-1 and 23 µM (inactive) in the test with XF498.

`COc1cc2c(c(OC)c1OC)-c1ccc(SC)c(=O)cc1[C@@H](NC(=O)c1ccc([N+](=O)[O-])cc1)CC2`: the GI50 was < 0.01 µM (active) in the test with RXF 631; < 0.0025 µM (active) in the test with DMS-114; < 0.0025 µM (active) in the test with SNB-78; < 0.0025 µM (active) with DLD-1; 0.00746 µM (active) with XF498.

Consider `CN[C@H](C)[C@@H](OC)c1ccccc1`, for which the GI50 with DMS-114, with SNB-78, with HOP-18, in the test with DLD-1 and in the test with XF498 was > 100 µM (inactive) each time.

Turning to `N#CC(C(=N/O)/C(=N/O)C(C#N)c1ccc(Cl)cc1)c1ccc(Cl)cc1` (configuration not stated), the GI50 in the test on DMS-114 is > 100 µM (inactive); in the test with SNB-78, 23.4 µM (inactive); with HOP-18 it was 43.6 µM (inactive); with DLD-1 it was > 100 µM (inactive); with XF498, > 100 µM (inactive).

With `NCc1ccc(O)c(O)c1O`, the GI50 in the test on BT-549 is 18.4 µM (inactive); in the test with DMS-114, 18.8 µM (inactive); in the test with MDA-MB-231 it was 19.7 µM (inactive); with SNB-78, > 65.9 µM (inactive); with HOP-18, > 56.8 µM (inactive); with DLD-1, 20.3 µM (inactive). For the same compound, in the test on XF498, the GI50 was 26.9 µM (inactive).

For `CC(=O)NC(CCCCNCc1ccccc1)C(=O)NCc1ccccc1` (configuration not stated), the GI50 with DMS-114, with SNB-78, in the test with DLD-1 and in the test on XF498 was > 100 µM (inactive) throughout.

Take `Cc1ccc(C)c(NC(=O)c2cccc([N+](=O)[O-])c2O)c1`: the GI50 is 15.1 µM (inactive) in the test on DMS-114; 14.1 µM (inactive) in the test with SNB-78; 5.7 µM (inactive) in the test with HOP-18; 27.8 µM (inactive) in the test with DLD-1; 23.2 µM (inactive) in the test on XF498.

As for `CC(=O)OCC(OC(C)=O)C(OC(C)=O)C(OC(C)=O)C(=O)CNn1c(-c2ccccc2Cl)nc2ccc(Br)cc2c1=O` (configuration not stated), the values for the GI50 in the test with DMS-114, in the test with SNB-78 and with XF498 were 30.4 µM (inactive), 65.6 µM (inactive) and 15.5 µM (inactive), respectively.

On to `O=C(/C=C/c1cccc([N+](=O)[O-])c1)c1cccnc1`, for which the GI50 in the test on DMS-114 is 22.6 µM (inactive); with SNB-78, 41.2 µM (inactive); with HOP-18, 2.06 µM (inactive); with DLD-1, 20.3 µM (inactive); in the test on XF498 it was 35.8 µM (inactive).

In the case of `Nc1ccccc1S(=O)(=O)N(CC(=O)O)c1ccccc1`, the GI50 in the test with RXF 631, in the test on HOP-18, in the test with DLD-1 and with XF498 was > 100 µM (inactive) in each case.

With `O=C(NC1CCC[C@H]1OC(=O)c1ccccc1)c1ccccc1` (some centres not stated), the GI50 was 66.8 µM (inactive) in the test with RXF 631; > 10 µM (inactive) with DMS-114; > 100 µM (inactive) with SNB-78; 24.4 µM (inactive) in the test with DLD-1; 35.3 µM (inactive) in the test with XF498.

For the compound `Cc1ccccc1N(CCC#N)C1=NN(C(=O)CC(=O)Nc2ccc(Cl)cc2)C(c2ccccc2)C1` (configuration not stated), the GI50 with RXF 631, in the test with DMS-114, in the test with SNB-78, in the test with HOP-18 and in the test with DLD-1 was > 100 µM (inactive) throughout.

With `Oc1cccnc1/C=N/OCc1ccccc1`, the GI50 is > 100 µM (inactive) in the test on DMS-114, > 100 µM (inactive) in the test with SNB-78, > 100 µM (inactive) with DLD-1 and 29 µM (inactive) with XF498.

With `Cc1cc(O)nc(NNC(C#N)c2ccc([N+](=O)[O-])cc2)n1` (configuration not stated), the GI50 was 45.6 µM (inactive) in the test on DMS-114, 42.6 µM (inactive) with SNB-78, > 100 µM (inactive) in the test on HOP-18 and > 100 µM (inactive) in the test on DLD-1.

In the case of `COC1=CC(=O)C2C(C1=O)[C@@H]1c3ccccc3OC[C@H]21` (some centres not stated), the GI50 with DMS-114, with SNB-78, with HOP-18 and in the test on DLD-1 was > 100 µM (inactive) throughout.

In the case of `C/C(=N\NC(=S)N1CCN(c2ccccn2)CC1)c1ccccn1`, the GI50 with BT-549 was 0.01 µM (active); in the test on DMS-114, 0.0001 µM (active); in the test on MDA-MB-231, 0.0495 µM (active); in the test on SNB-78 it was 5.38 µM (inactive); in the test with DLD-1 it was 0.000509 µM (active); in the test with XF498, 0.000206 µM (active).

`C=Cc1ccc(C)[n+](C[Si](C)(C)O[Si](C)(C)C[n+]2cc(C=C)ccc2C)c1`: the GI50 in the test on DMS-114, with SNB-78, in the test on HOP-18 and with DLD-1 was > 100 µM (inactive) each time.

`CCN(CC)CCNC(=O)c1ccccc1Nc1c(Cl)cccc1Cl`: the GI50 with DMS-114 is 11.6 µM (inactive); with SNB-78 it was 16.4 µM (inactive); with DLD-1 it was 11.7 µM (inactive); with XF498, 4.19 µM (inactive).

For `N=C(N)NS(=O)(=O)c1ccc(NCc2c3ccccc3[n+]([O-])c3ccccc23)cc1`, the GI50 with DMS-114 was 10.4 µM (inactive); in the test on SNB-78, 31.6 µM (inactive); in the test on HOP-18, 8.63 µM (inactive); in the test with DLD-1, 28.2 µM (inactive).

With `Cc1ccc(S(=O)(=O)NC2CCCCO2)cc1` (configuration not stated), the GI50 in the test on DMS-114, in the test on SNB-78, with HOP-18, in the test with DLD-1 and in the test with XF498 was > 100 µM (inactive) throughout.

Turning to `O=C1NC(=O)C2C1N(Cc1ccccc1)C(=O)N2Cc1ccccc1` (configuration not stated), the GI50 in the test with RXF 631, in the test on DMS-114, with SNB-78, in the test on DLD-1 and with XF498 was > 100 µM (inactive) each time.

Take `O=c1cccccc1NCCCCNc1cccccc1=O`: the GI50 in the test with RXF 631 is > 100 µM (inactive); with DMS-114, 31.3 µM (inactive); in the test with SNB-78 it was > 100 µM (inactive); in the test with HOP-18 it was > 100 µM (inactive); in the test on DLD-1, 57.3 µM (inactive).

On to `COc1ccc2c(c1)[n+]([O-])c(-c1ccc([N+](=O)[O-])cc1)c(N)[n+]2[O-]`, for which the GI50 in the test with RXF 631 was > 100 µM (inactive); in the test with DMS-114, 21.4 µM (inactive); in the test on SNB-78 it was 96.4 µM (inactive); in the test with HOP-18, > 100 µM (inactive); in the test on DLD-1 it was 63.1 µM (inactive).

`Cn1cnc([N+](=O)[O-])c1Sc1nc2cccnc2s1`: the GI50 with RXF 631 was 14.6 µM (inactive); in the test on DMS-114, 14.7 µM (inactive); in the test on SNB-78, 46.9 µM (inactive); in the test on DLD-1 it was 12.8 µM (inactive); in the test on XF498 it was 21 µM (inactive).

As to `CC(C)NC(=O)O/N=C1\CCC2[C@@H]3CC=C4C[C@@H](OC(=O)NC(C)C)CC[C@]4(C)C3CC[C@]12C` (some centres not stated), the GI50 in the test on RXF 631 was 1.32 µM (inactive); in the test on DMS-114, 0.664 µM (active); in the test with SNB-78 it was 2.29 µM (inactive); in the test with HOP-18, 1.84 µM (inactive); in the test with DLD-1 it was 2.53 µM (inactive).

Turning to `CC(C)=CCc1c(O)cc2oc(-c3ccc(O)cc3O)cc(=O)c2c1O`, the GI50 in the test with BT-549 was 29.8 µM (inactive); in the test with MDA-MB-231 it was 26.4 µM (inactive); in the test on NCI/ADR-RES, 33.3 µM (inactive).

Turning to `O=C1OC(C(O)C(O)C(O)CO)C(O)C1O` (configuration not stated), the GI50 in the test with BT-549, in the test on MDA-MB-231 and with NCI/ADR-RES was > 100 µM (inactive) in each case.

With `CN(C)C1(C#N)CCC2(CC1)OCCO2`, in the test on SNB-78, the GI50 was > 100 µM (inactive).

Take `COc1cc2c(cc1OC)-c1c(oc3cc(OC4OC(CO)C(O)C(O)C4O)c(OC)cc3c1=O)C(O)O2` (configuration not stated): the GI50 with BT-549, with MDA-MB-231 and in the test on NCI/ADR-RES was > 100 µM (inactive) in each case.

As to `C=CCC1(O)C(=O)OC2C(O)COC21O` (configuration not stated), the GI50 in the test with BT-549, in the test on MDA-MB-231 and in the test with NCI/ADR-RES was > 100 µM (inactive) in each case.

Consider `C=Cc1cncc(C#N)c1CCc1c(C#N)cncc1C=C`, for which the GI50 in the test with DMS-114, in the test with SNB-78, with HOP-18, with DLD-1 and in the test with XF498 was > 10 µM (inactive) each time.

As for `COC[C@@H](/N=C/N1CCc2cc(OC)c(OC)cc2[C@@H]1C)C(C)(C)C`, the GI50 in the test with RXF 631, with DMS-114, in the test on HOP-18, in the test on DLD-1 and with XF498 was > 100 µM (inactive) throughout.

On to `CCC(C)C1NC(=O)C(CC(C)C)NC(=O)C(C(C)C)NC(=O)C2CSSCC(NC1=O)C(=O)N2` (configuration not stated) (cyclo(CCVLI); disulfide 1-2; configuration not given here), for which the GI50 is 0.198 µM (active) in the test on BT-549, 0.103 µM (active) in the test with MDA-MB-231 and 2.55 µM (inactive) in the test with NCI/ADR-RES.

Take `Cc1cc(=O)[nH]c2cc(NC(=O)C(CCCNC(=N)N)NC(=O)OCc3ccccc3)ccc12` (configuration not stated): the GI50 in the test with BT-549, with MDA-MB-231 and in the test on NCI/ADR-RES was > 100 µM (inactive) throughout.

In the case of `O=C1C(C(c2ccc([N+](=O)[O-])cc2)N2CCOCC2)=C(O)C(c2ccccc2)N1c1ccccc1` (configuration not stated), the GI50 with BT-549, with MDA-MB-231 and with NCI/ADR-RES was > 10 µM (inactive) in each case.

For the compound `O=C1CC(C(O)C(O)C(O)CO)CC(=O)N1` (configuration not stated), the GI50 in the test on BT-549 was 74 µM (inactive); in the test with MDA-MB-231, > 100 µM (inactive); in the test on NCI/ADR-RES it was > 100 µM (inactive).

As for `N#CC(C#N)=Cc1cccc(Oc2ccccc2)c1`, the GI50 in the test with DMS-114 was 26.2 µM (inactive); with SNB-78, 29.2 µM (inactive); in the test with HOP-18 it was 16.7 µM (inactive); in the test on DLD-1, 22.5 µM (inactive); in the test with XF498 it was 20.2 µM (inactive).

Consider `COC(=O)C(=O)CC(=O)CCn1ncc(Cl)c(Cl)c1=O`, for which the GI50 in the test with RXF 631 was 8.55 µM (inactive); in the test with DMS-114 it was 3.15 µM (inactive); in the test on SNB-78 it was 20.5 µM (inactive); in the test with DLD-1, 10.3 µM (inactive); in the test on XF498 it was 29 µM (inactive).
